Results reported in US6204289A, “Cembranoid inhibitors of nicotinic acetylcholine receptors” (priority 1998, dated 2001).

System: peripheral and neuronal AchRs
Assay: Inhibition of peripheral and neuronal AchRs (summary statement)
Procedure: Cembranoids are cyclic diterpenoids naturally present in many plants and invertebrate animals. We discovered that cembranoids inhibit both peripheral and neuronal AchRs at concentrations ranging from 10^-15 molar to 10^-4 molar; cembranoids also increase the rate of receptor desensitization. Seventeen different cembranoid analogs were tested. There are two main differences between previously known AchR inhibitors and these new cembranoid inhibitors. […] Second, cembranoids are present in tobacco leaves, and therefore potentially have an effect on nicotine action in the brains of cigarette smokers. Nicotine-induced desensitization of neuronal acetylcholine receptors is related to behavioral tolerance or addiction to nicotine (6); since cembranoids increase receptor desensitization, they are likely to increase tobacco addictive properties. Thus, by extracting the cembranoids from tobacco, this could produce less addictive cigarettes (or any tobacco related product). On the other hand, addition of cembranoids to tobacco could possibly increase its addictive properties. In addition, cembranoids displace general anesthetics from the muscle-type AchR, and so they could ameliorate the undesirable side-effects of anesthesia in patients with Myasthenia gravis.
We discovered that cembranoids isolated from gorgonian-corals inhibit both peripheral and neuronal AchRs.

| Molecule | potency relative to any previously known AchR inhibitors (factor) |
| --- | --- |
| C=C(C(=O)O)C1CC/C(C)=C/CC/C(C)=C/CCC2(C)OC2C1 (centres unmarked) [pseudoplexauric acid] | at least 1000 |
| eupalmerin acetate | at least 1000 |
